Where “and” joins values, the source holds several entries; their conditions need not be identical. Equal entries are not always repeated. Structures can show the parent of a compound that is named as a salt. Where two headings read alike, the source gives them in different places.
Legend:
S. hyodysenteriae = conditions: cited from earlier work
[1] = system: weakly beta-hemolytic spirochetes; conditions: WBHS
Lawsonia intracellularis = Lawsonia intracellularis infection of IEC-18 rat enterocyte cell cultures; format: cell-based; conditions: for Percentage ratio of Lawsonia intracellularis infection: listed as Valnemulin (ch); for percent of cells infected with Lawsonia intracellularis at 2 µg/mL: IEC-18, 2 μg/ml; for percent of cells infected with Lawsonia intracellularis at 2 µg/mL / percent of cells infected with Lawsonia intracellularis at 8 µg/mL: first strain column, read-out: Percentage ratio of Lawsonia intracellularis infection; for percent of cells infected with Lawsonia intracellularis at 8 µg/mL: IEC-18, 8 μg/ml
Method: The method of Lawson, G. H. K. et al., J. Clin. Microbiol. 31 (1993) 1136-1142 is generally followed, with some modifications (standard Kirby-Bauer disc methods are not applicable to intracellular bacteria):
Cells: Monolayers of IEC-18 rat enterocyte cell cultures (ATCC CRL 1589) are established and maintained by standard cell culture methods. One day old monolayers of dividing cells (approx. 30% confluence) are prepared for infection on day 0, on glass coverslips in small culture vials (Tracs).
Inocula: Batches of three strains of Lawsonia intracellularis are used as inocula. These are derived from pigs afflicted with proliferative enteropathy, of the proliferative haemorrhagic enteropathy (PHE) and porcine intestinal adenomatosis (PIA) forms prepared from pig intestines, and passaged in cell cultures as described in the above Lawson reference. The two PHE strains were partly tested for pathogenicity in pigs as described in McOrist, S. et al., Infect. Immun. 61 (1993) 4286-4292. Inocula batches are collected after several cell passages, and stored frozen at -70° C. in 1 ml vials. Preliminary trials established appropriate dilutions of thawed vials that would result in readily recognizeable cell infections in 5 day trials.
Antibiotics are prepared as 100× stock solutions for each use. Activity of each batch of antibiotic is confirmed by standard Kirby-Bauer disc methods with a laboratory strain of Escherichia coli.
Infections: On day 0, a vial of each strain is thawed, diluted 1/8 to 1/32 with culture medium, for use in four groups 1 to 4.
For group 4 (continuous treatment) this inoculum is initially incubated for one hour at 37° C. in culture medium containing the antibiotic at various concentrations prior to addition to cells.
For group 3 (extracellular activity) this inoculum is prepared in culture medium, containing the antibiotic at various concentrations added immediately prior to time of addition to cells.
For groups 1 (control) and 2 (intracellular activity) inocula are prepared in culture medium free of antibiotics and added to cells. Culture vials (Tracs) with cells with added inocula (+/- antibiotics) in a total of 0.5 ml of medium are placed in steel jars, evacuated to 40% atmosphere (8% O2), left for 2 min, replenished with hydrogen and finally 10% CO2. Tracs are then removed from these jars and placed into an incubator set to provide a humidified atmosphere of 8% O2, 8.8% CO2 and the remainder nitrogen, at 37° C.
On days 1 and 2 all vials are removed and refed with fresh medium, either containing antibiotics, groups 2 and 4, or not, groups 1 and 3, and replaced into the incubator. On day 5, all coverslips are removed and stained for Lawsonia intracellularis by indirect immunoperoxidase stain incorporating a specific monoclonal antibody. The number of cells on each coverslip, heavily infected with Lawsonia intracellularis (>30 per cell, heavily infected cell=HIC) is used as the main measure of infection. The number of foci of HIC and general cell observations are also noted. HIC in control (group 1), intracellularly active antibiotic assay (group 2), extracelluiarly active antibiotic assay (group 3) and continuous treatment assay (group 4) are compared in triplicate assays, for up to 3 strains each. Some assay are repeated for various inocula strengths. Percentage ratios are calculated after derivation of the mean HIC of the controls relevant to the test group. Mean control HIC is the total number of HIC in control Tracs divided by the number of infected control Tracs. The percentage ratio of test Tracs is then calculated by dividing their HIC value by the mean control HIC, multiplied by 100 to give a percentage.

[2] = Lawsonia intracellularis, group 2 (intracellular activity)
[3] = Lawsonia intracellularis, group 3 (extracellular activity)

SMILES | elimination of S. hyodysenteriae (S. hyodysenteriae; tiamulin 35 and 40 ppm, Taylor 1980) | treatment of swine dysentery (S. hyodysenteriae; tiamulin 100 ppm, less severely affected animals, Taylor 1982) | strains with MIC at the lowest value [1] | Percentage ratio of Lawsonia intracellularis infection (Lawsonia intracellularis; 4 μg/ml, group 2 (intracellular activity)) | Percentage ratio of Lawsonia intracellularis infection (Lawsonia intracellularis; 4 μg/ml, group 3 (extracellular activity)) | Percentage ratio of Lawsonia intracellularis infection (Lawsonia intracellularis; 4 μg/ml, group 4 (continuous treatment)) | Percentage ratio of Lawsonia intracellularis infection (Lawsonia intracellularis; 8 μg/ml, group 2 (intracellular activity)) | Percentage ratio of Lawsonia intracellularis infection (Lawsonia intracellularis; 8 μg/ml, group 3 (extracellular activity)) | Percentage ratio of Lawsonia intracellularis infection (Lawsonia intracellularis; 8 μg/ml, group 4 (continuous treatment)) | percent of cells infected with Lawsonia intracellularis at 2 µg/mL (Lawsonia intracellularis; [2]) | percent of cells infected with Lawsonia intracellularis at 2 µg/mL (Lawsonia intracellularis; [3]) | percent of cells infected with Lawsonia intracellularis at 8 µg/mL (Lawsonia intracellularis; [2]) | percent of cells infected with Lawsonia intracellularis at 8 µg/mL (Lawsonia intracellularis; [3]) | percent of cells infected with Lawsonia intracellularis at 8 µg/mL (Lawsonia intracellularis; Lawsonia intracellularis, group 4 (continuous treatment)) | MIC (Lawsonia intracellularis; Lawsonia intracellularis, read-out: minimum concentration to cause significant inhibition of growth (<1% growth))
C=C[C@]1(C)C[C@@H](OC(=O)CSCCN(CC)CC)[C@]2(C)[C@H](C)CC[C@]3(CCC(=O)[C@H]32)[C@@H](C)[C@@H]1O [tiamulin hydrogen fumarate] | eliminate S. hyodysenteriae from faeces but not prevent the recovery from mucosal scrapings | successfully used under experimental conditions | – | – | – | – | – | – | – | – | – | – | – | – | –
C=C[C@]1(C)C[C@@H](OC(=O)CSC(C)(C)CNC(=O)[C@H](N)C(C)C)[C@]2(C)[C@H](C)CC[C@]3(CCC(=O)[C@H]32)[C@@H](C)[C@@H]1O [valnemulin hydrochloride, 14-O-[1-[(R)-2-amino-3-methylbutyrylamino]-2-methylpropan-2-ylthioacetyl]mutilin] | – | – | 9 out of 10 strains | 1.7% | 0.83% and 1.7% | 0.8% and 2.5% | 0.86% | 0.2% and 1.4% | 0.5% and 1.4% and 0.2% | 0% | 0% | 0% | 0% | 0% | < 2 µg/mL

Source: US6130250A, “Veterinary use of a pleuromutilin derivative” (priority 1996, dated 2000)
